Our source for the IC50 values is patent US8829026B2, “Sulfamoyl benzoic acid heterobicyclic derivatives as TRPM8 antagonists” (RaQualia Pharma Inc., priority 2010, dated 2014).

The target in this experiment is T1, human TRPM8 (Homo sapiens, UniProt Q7Z2W7).
T1 construct: expressed in transfected cells
The experiment can be described thus: Menthol-induced Ca2+ influx in HEK293 cells stably expressing human TRPM8. Particulars: 30 microM menthol-induced Ca2+ influx, HEK293 cells stably expressing human TRPM8, 11-point dose-response. The format is cell-based. How it is done: Measurement of the Menthol-Induced Ca^2+ Influx in HEK293 Cells Stably Expressing Human TRPM8
A cell-based Ca^2+ influx assay using HEK293 cells stably expressing human TRPM8 was used to identify the activity of compounds.
HEK293 cells stably expressing human TRPM8 were grown in T175 flasks at 37° C. in a 5% CO2 humidified incubator to about 80% confluence. Media composition consisted of Dulbecco's Modified Eagle Medium (high glucose), 10% fetal calf serum (FCS), 100 units/ml Penicillin, 100 microg/ml Streptomycin and 600 microg/ml Geneticine. At 24 hours prior to assay, cells were seeded in poly-D-lysine coated 384-well plates (BD FALCON) at a density of 30,000 cells per well in culture medium and grown overnight in 5% CO2 at 37° C. On the assay day, growth media was removed and cells were loaded with 0.5 microM Fluo4-AM (Molecular Probes) and 0.005% Pluronic F-127 dissolved in assay buffer (Hank's balanced salt solution (HBSS), 19.4 mM HEPES pH7.4, 2.5 mM Probenecid) for 1 hour at room temperature. After washing with assay buffer, the cells were preincubated with various concentrations of the compounds for 5 min. The changes in intracellular calcium concentration by addition of 30 microM menthol were monitored by the cell imaging technology by Hamamatsu Photonics's Functional Drug Screening System (FDSS).
The IC50 values for compounds of the present invention were determined from 11-point dose-response studies. Curves were generated using the average of duplicate wells for each data point. Finally, the IC50 values are calculated with the best-fit dose curve determined by XLfit (ID Business Solutions Ltd.).

T1 sequence (Q7Z2W7 whole entry): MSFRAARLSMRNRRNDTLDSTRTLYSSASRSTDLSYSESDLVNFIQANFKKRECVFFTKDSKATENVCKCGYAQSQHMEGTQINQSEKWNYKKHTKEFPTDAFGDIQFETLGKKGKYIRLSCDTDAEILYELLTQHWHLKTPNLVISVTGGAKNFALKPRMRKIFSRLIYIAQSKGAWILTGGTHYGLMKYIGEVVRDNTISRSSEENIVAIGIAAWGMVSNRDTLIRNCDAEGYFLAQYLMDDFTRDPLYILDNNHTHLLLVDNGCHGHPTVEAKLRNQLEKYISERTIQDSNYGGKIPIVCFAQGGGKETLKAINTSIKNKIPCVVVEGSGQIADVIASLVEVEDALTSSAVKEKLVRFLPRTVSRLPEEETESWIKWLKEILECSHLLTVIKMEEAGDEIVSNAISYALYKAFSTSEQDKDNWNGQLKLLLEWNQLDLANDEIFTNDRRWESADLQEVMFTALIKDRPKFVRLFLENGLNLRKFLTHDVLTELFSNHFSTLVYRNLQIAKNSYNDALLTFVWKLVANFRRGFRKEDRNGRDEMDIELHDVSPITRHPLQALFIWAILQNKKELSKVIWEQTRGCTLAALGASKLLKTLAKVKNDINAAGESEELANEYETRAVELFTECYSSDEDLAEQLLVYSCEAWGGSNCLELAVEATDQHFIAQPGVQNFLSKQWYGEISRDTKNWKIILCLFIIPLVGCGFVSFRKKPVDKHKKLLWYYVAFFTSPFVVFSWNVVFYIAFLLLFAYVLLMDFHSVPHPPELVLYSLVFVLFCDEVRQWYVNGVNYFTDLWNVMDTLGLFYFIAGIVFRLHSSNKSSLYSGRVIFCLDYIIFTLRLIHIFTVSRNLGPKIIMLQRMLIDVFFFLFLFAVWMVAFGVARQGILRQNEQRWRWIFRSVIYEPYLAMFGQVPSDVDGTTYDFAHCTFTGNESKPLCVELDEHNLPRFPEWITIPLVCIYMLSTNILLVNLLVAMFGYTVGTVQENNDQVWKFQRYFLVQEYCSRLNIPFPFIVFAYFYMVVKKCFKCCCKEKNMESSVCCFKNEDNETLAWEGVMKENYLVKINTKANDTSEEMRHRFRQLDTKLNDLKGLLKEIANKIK

Take `Cn1ncc2cc(CN(c3ncc(C(F)(F)F)cc3Cl)S(=O)(=O)c3ccc(C(=O)O)cc3)ccc21` [Example 3, 4-(N-(3-Chloro-5-(trifluoromethyl)pyridin-2-yl)-N-((1-methyl-1H-indazol-5-yl)methyl)sulfamoyl)benzoic acid]: the IC50 (commonly the concentration that gives 50% inhibition) was less than 1000 nM.

The molecule `CCc1cc(C(=O)O)ccc1S(=O)(=O)N(Cc1ccc2c(cnn2C)c1)c1ncc(C(F)(F)F)cc1Cl` [Example 4, 4-(N-(3-Chloro-5-(trifluoromethyl)pyridin-2-yl)-N-((1-methyl-1H-indazol-5-yl)methyl)sulfamoyl)-3-ethylbenzoic acid] displayed a 50% inhibitory concentration (IC50) of less than 1000 nM.

Turning to `O=C(O)c1ccc(S(=O)(=O)N(Cc2ccc3occc3c2)c2ncc(Cl)cc2Cl)cc1` [Example 5, 4-(N-(Benzofuran-5-ylmethyl)-N-(3,5-dichloropyridin-2-yl)sulfamoyl)benzoic acid], the half-inhibitory concentration (IC50) is less than 1000 nM.

In turn, `Cn1ccc2cc(CN(c3ncc(C(F)(F)F)cc3Cl)S(=O)(=O)c3ccc(C(=O)O)cc3)ccc21` [Example 6, 4-(N-(3-Chloro-5-(trifluoromethyl)pyridin-2-yl)-N-((1-methyl-1H-indol-5-yl)methyl)sulfamoyl)benzoic acid] registered a half-inhibitory concentration (IC50) of less than 1000 nM.

In turn, `Cn1ccc2cc(CN(c3ncc(Cl)cc3Cl)S(=O)(=O)c3ccc(C(=O)O)cc3)ccc21` [Example 7, 4-(N-(3,5-Dichloropyridin-2-yl)-N-((1-methyl-1H-indol-5-yl)methyl)sulfamoyl)benzoic acid] had an IC50 of less than 1000 nM.

Molecule `Cn1ccc2cc(CN(c3ncc(C(F)(F)F)cc3Cl)S(=O)(=O)c3ccc(C(=O)O)cc3Cl)ccc21` [Example 8, 3-Chloro-4-(N-(3-chloro-5-(trifluoromethyl)pyridin-2-yl)-N-((1-methyl-1H-indol-5-yl)methyl)sulfamoyl)benzoic acid] registered an IC50 of less than 1000 nM.

`Cn1ccc2cc(CN(c3ncc(Cl)cc3Cl)S(=O)(=O)c3ccc(C(=O)O)cc3Cl)ccc21` [Example 9, 3-Chloro-4-(N-(3,5-dichloropyridin-2-yl)-N-((1-methyl-1H-indol-5-yl)methyl)sulfamoyl)benzoic acid] showed a half-maximal inhibitory concentration (IC50) of less than 1000 nM.

Molecule `O=C(O)c1ccc(S(=O)(=O)N(Cc2ccc3ccoc3c2)c2ncc(Cl)cc2Cl)cc1` [Example 10, 4-(N-(Benzofuran-6-ylmethyl)-N-(3,5-dichloropyridin-2-yl)sulfamoyl)benzoic acid] gave an IC50 of less than 1000 nM.

The molecule `Cc1cc(C(=O)O)ccc1S(=O)(=O)N(Cc1ccc2c(ccn2C)c1)c1ncc(C(F)(F)F)cc1Cl` [Example 11, 4-(N-(3-Chloro-5-(trifluoromethyl)pyridin-2-yl)-N-((1-methyl-1H-indol-5-yl)methyl)sulfamoyl)-3-methylbenzoic acid] registered a half-inhibitory concentration (IC50) of less than 1000 nM.

In the case of `Cc1cc(C(=O)O)ccc1S(=O)(=O)N(Cc1ccc2c(ccn2C)c1)c1ncc(Cl)cc1Cl` [Example 12, 4-(N-(3,5-Dichloropyridin-2-yl)-N-((1-methyl-1H-indol-5-yl)methyl)sulfamoyl)-3-methylbenzoic acid], the IC50 is less than 1000 nM.

Turning to `CCn1cc2cc(CN(c3ncc(C(F)(F)F)cc3Cl)S(=O)(=O)c3ccc(C(=O)O)cc3)ccc2n1` [Example 13, 4-(N-(3-Chloro-5-(trifluoromethyl)pyridin-2-yl)-N-((2-ethyl-2H-indazol-5-yl)methyl)sulfamoyl)benzoic acid], the concentration for half-maximal inhibition (IC50) is less than 1000 nM.

`CCn1ncc2cc(CN(c3ncc(C(F)(F)F)cc3Cl)S(=O)(=O)c3ccc(C(=O)O)cc3Cl)ccc21` [Example 14, 3-Chloro-4-(N-(3-chloro-5-(trifluoromethyl)pyridin-2-yl)-N-((1-ethyl-1H-indazol-5-yl)methyl)sulfamoyl)benzoic acid] registered an IC50 of less than 1000 nM.

With `Cn1cc2cc(CN(c3ncc(C(F)(F)F)cc3Cl)S(=O)(=O)c3ccc(C(=O)O)cc3)ccc2n1` [Example 16, 4-(N-(3-Chloro-5-(trifluoromethyl)pyridin-2-yl)-N-((2-methyl-2H-indazol-5-yl)methyl)sulfamoyl)benzoic acid], the IC50 is 1000 to 10000 nM.

The molecule `Cn1ncc2ccc(CN(c3ncc(C(F)(F)F)cc3Cl)S(=O)(=O)c3ccc(C(=O)O)cc3)cc21` [Example 17, 4-(N-(3-Chloro-5-(trifluoromethyl)pyridin-2-yl)-N-((1-methyl-1H-indazol-6-yl)methyl)sulfamoyl)benzoic acid] gave a half-maximal inhibitory concentration (IC50) of less than 1000 nM.

In turn, `Cn1cc2ccc(CN(c3ncc(C(F)(F)F)cc3Cl)S(=O)(=O)c3ccc(C(=O)O)cc3)cc2n1` [Example 18, 4-(N-(3-Chloro-5-(trifluoromethyl)pyridin-2-yl)-N-((2-methyl-2H-indazol-6-yl)methyl)sulfamoyl)benzoic acid] returned a 50% inhibitory concentration (IC50) of 1000 to 10000 nM.

In turn, `CCn1ncc2cc(CN(c3ncc(Cl)cc3Cl)S(=O)(=O)c3ccc(C(=O)O)cc3)ccc21` [Example 19, 4-(N-(3,5-Dichloropyridin-2-yl)-N-((1-ethyl-1H-indazol-5-yl)methyl)sulfamoyl)benzoic acid] yielded a half-maximal inhibitory concentration (IC50) of less than 1000 nM.

`COCCn1ncc2cc(CN(c3ncc(C(F)(F)F)cc3Cl)S(=O)(=O)c3ccc(C(=O)O)cc3)ccc21` [Example 20, 4-(N-(3-Chloro-5-(trifluoromethyl)pyridin-2-yl)-N-((1-(2-methoxyethyl)-1H-indazol-5-yl)methyl)sulfamoyl)benzoic acid]: the half-inhibitory concentration (IC50) is less than 1000 nM.

The molecule `O=C(O)c1ccc(S(=O)(=O)N(Cc2ccc3c(cnn3C3CCOCC3)c2)c2ncc(C(F)(F)F)cc2Cl)cc1` [Example 21, 4-(N-(3-Chloro-5-(trifluoromethyl)pyridin-2-yl)-N-((1-(tetrahydro-2H-pyran-4-yl)-1H-indazol-5-yl)methyl)sulfamoyl)benzoic acid] came in with an IC50 of less than 1000 nM.

For the molecule `CC(C)(O)Cn1ncc2cc(CN(c3ncc(C(F)(F)F)cc3Cl)S(=O)(=O)c3ccc(C(=O)O)cc3)ccc21` [Example 22, 4-(N-(3-Chloro-5-(trifluoromethyl)pyridin-2-yl)-N-((1-(2-hydroxy-2-methylpropyl)-1H-indazol-5-yl)methyl)sulfamoyl)benzoic acid], the IC50 lay in the range of 1000 to 10000 nM.

In the case of `CCc1cc(C(=O)O)ccc1S(=O)(=O)N(Cc1ccc2c(cnn2C)c1)c1ncc(Cl)cc1Cl` [Example 23, 4-(N-(3,5-Dichloropyridin-2-yl)-N-((1-methyl-1H-indazol-5-yl)methyl)sulfamoyl)-3-ethylbenzoic acid], the IC50 was less than 1000 nM.

Take `Cn1ncc2cc(CN(c3ncc(Cl)cc3Cl)S(=O)(=O)c3ccc(C(=O)O)cc3Cl)ccc21` [Example 24, 3-Chloro-4-(N-(3,5-dichloropyridin-2-yl)-N-((1-methyl-1H-indazol-5-yl)methyl)sulfamoyl)benzoic acid]: the IC50 is less than 1000 nM.

As to `Cn1ncc2cc(CN(c3ncc(C(F)(F)F)cc3Cl)S(=O)(=O)c3ccc(C(=O)O)cc3Cl)ccc21` [Example 25, 3-Chloro-4-(N-(3-chloro-5-(trifluoromethyl)pyridin-2-yl)-N-((1-methyl-1H-indazol-5-yl)methyl)sulfamoyl)benzoic acid], the IC50 was less than 1000 nM.

Consider `Cc1cc(C(=O)O)ccc1S(=O)(=O)N(Cc1ccc2c(cnn2C)c1)c1ncc(C(F)(F)F)cc1Cl` [Example 26, 4-(N-(3-Chloro-5-(trifluoromethyl)pyridin-2-yl)-N-((1-methyl-1H-indazol-5-yl)methyl)sulfamoyl)-3-methylbenzoic acid], for which the half-inhibitory concentration (IC50) was less than 1000 nM.

Regarding `Cc1cc(C(=O)O)ccc1S(=O)(=O)N(Cc1ccc2c(cnn2C)c1)c1ncc(Cl)cc1Cl` [Example 27, 4-(N-(3,5-Dichloropyridin-2-yl)-N-((1-methyl-1H-indazol-5-yl)methyl)sulfamoyl)-3-methylbenzoic acid], the 50% inhibitory concentration (IC50) is less than 1000 nM.

Turning to `O=C(O)c1ccc(S(=O)(=O)N(Cc2ccc3c(cnn3C3CC3)c2)c2ncc(C(F)(F)F)cc2Cl)cc1` [Example 28, 4-(N-(3-Chloro-5-(trifluoromethyl)pyridin-2-yl)-N-((1-cyclopropyl-1H-indazol-5-yl)methyl)sulfamoyl)benzoic acid], the 50% inhibitory concentration (IC50) is less than 1000 nM.

Molecule `O=C(O)c1ccc(S(=O)(=O)N(Cc2ccc3c(cnn3C3CC3)c2)c2ncc(Cl)cc2Cl)cc1` [Example 29, 4-(N-((1-Cyclopropyl-1H-indazol-5-yl)methyl)-N-(3,5-dichloropyridin-2-yl)sulfamoyl)benzoic acid] gave a half-inhibitory concentration (IC50) of less than 1000 nM.

Consider `Cn1nnc2cc(CN(c3ncc(C(F)(F)F)cc3Cl)S(=O)(=O)c3ccc(C(=O)O)cc3)ccc21` [Example 30, 4-(N-(3-Chloro-5-(trifluoromethyl)pyridin-2-yl)-N-((1-methyl-1H-benzo[d][1,2,3]triazol-5-yl)methyl)sulfamoyl)benzoic acid], for which the IC50 fell in the range of 1000 to 10000 nM.

Take `O=C(O)c1ccc(S(=O)(=O)N(Cc2ccc3c(cnn3C3CC3)c2)c2ncc(C(F)(F)F)cc2Cl)c(Cl)c1` [Example 31, 3-Chloro-4-(N-(3-chloro-5-(trifluoromethyl)pyridin-2-yl)-N-((1-cyclopropyl-1H-indazol-5-yl)methyl)sulfamoyl)benzoic acid]: the IC50 is less than 1000 nM.
